Among the data in PubChem BioAssay (NCI) are TGI values, retold here.

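Grown in 96-well plates, cells were treated for 48 hours with each compound at five concentrations. Insufficient inhibition: endpoint recorded as highest concentration tested. TGI: concentration producing complete growth inhibition.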

This assay concerns LXFL 529 NSCLC. In words: growth of human tumour cells (NCI), 48 h.

Take `C=CCn1c(=O)n(CC=C)c(=O)n(CC=C)c1=O`: the TGI is over 100 µM.
With `CCCCN1C=CN2c3nc4cc(C)c(C)cc4n3C(C(=O)OC)=C(C(=O)OC)C12` (configuration not stated) the figure was over 100 µM.
